# Reference: ChEMBL document CHEMBL3804830, “Efficient synthesis of new antiproliferative steroidal hybrids using the molecular hybridization approach” (Eur J Med Chem, 2016)
# Key:
# [1] = Antiproliferative activity against human EC109 cells assessed as cell growth inhibition after 72 hrs by MTT assay; format: functional, cell-based; conditions: ECa-109, 72 h
# SH-SY5Y [2] = test: Cell cycle arrest in human SH-SY5Y assessed as accumulation at G2/M phase at 5 uM after 24 hrs by propidium iodide staining based flow cytometry (reference value: 14.53%); format: functional
# SH-SY5Y [3] = test: Induction of apoptosis in human SH-SY5Y cells assessed as viable cells at 10 uM after 24 hrs by Annexin V-FITC/propidium iodide staining based flow cytometry (reference value: 88.2%); format: functional; conditions: read-out: Activity
# SH-SY5Y [4] = test: Induction of apoptosis in human SH-SY5Y cells assessed as late apoptotic cells at 10 uM after 24 hrs by Annexin V-FITC/propidium iodide staining based flow cytometry (reference value: 5.7%); format: functional
# SH-SY5Y [5] = test: Induction of apoptosis in human SH-SY5Y cells assessed as early apoptotic cells at 1.25 uM after 24 hrs by Annexin V-FITC/propidium iodide staining based flow cytometry (reference value: 3.3%); format: functional
# SH-SY5Y [6] = test: Cell cycle arrest in human SH-SY5Y assessed as accumulation at S phase at 2.5 uM after 24 hrs by propidium iodide staining based flow cytometry (reference value: 21.34%); format: functional
# SH-SY5Y [7] = test: Induction of apoptosis in human SH-SY5Y cells assessed as late apoptotic cells at 2.5 uM after 24 hrs by Annexin V-FITC/propidium iodide staining based flow cytometry (reference value: 5.7%); format: functional
# SH-SY5Y [8] = test: Induction of apoptosis in human SH-SY5Y cells after 24 hrs by Annexin V-FITC/propidium iodide staining based flow cytometry; format: functional, cell-based
# SH-SY5Y [9] = test: Induction of apoptosis in human SH-SY5Y cells assessed as early apoptotic cells at 10 uM after 24 hrs by Annexin V-FITC/propidium iodide staining based flow cytometry (reference value: 3.3%); format: functional
# [10] = Antiproliferative activity against human MGC803 cells assessed as cell growth inhibition after 72 hrs by MTT assay; format: functional, cell-based; conditions: MGC-803, 72 h
# SH-SY5Y [11] = test: Induction of apoptosis in human SH-SY5Y cells assessed as late apoptotic cells at 20 uM after 24 hrs by Annexin V-FITC/propidium iodide staining based flow cytometry (reference value: 5.7%); format: functional
# SH-SY5Y [12] = test: Cell cycle arrest in human SH-SY5Y assessed as accumulation at S phase at 1.25 uM after 24 hrs by propidium iodide staining based flow cytometry (reference value: 21.34%); format: functional
# SH-SY5Y [13] = test: Cell cycle arrest in human SH-SY5Y assessed as accumulation at G2/M phase after 24 hrs by propidium iodide staining based flow cytometry; format: functional
# SH-SY5Y [14] = test: Cell cycle arrest in human SH-SY5Y assessed as accumulation at G0/G1 phase at 2.5 uM after 24 hrs by propidium iodide staining based flow cytometry (reference value: 61.80%); format: functional
# SH-SY5Y [15] = test: Cell cycle arrest in human SH-SY5Y assessed as accumulation at G2/M phase at 1.25 uM after 24 hrs by propidium iodide staining based flow cytometry (reference value: 14.53%); format: functional
# SH-SY5Y [16] = test: Induction of apoptosis in human SH-SY5Y cells assessed as viable cells at 2.5 uM after 24 hrs by Annexin V-FITC/propidium iodide staining based flow cytometry (reference value: 88.2%); format: functional; conditions: read-out: Activity
# SH-SY5Y [17] = test: Induction of apoptosis in human SH-SY5Y cells assessed as viable cells at 1.25 uM after 24 hrs by Annexin V-FITC/propidium iodide staining based flow cytometry (reference value: 88.2%); format: functional; conditions: read-out: Activity
# SH-SY5Y [18] = test: Antiproliferative activity against human SH-SY5Y cells assessed as cell growth inhibition after 72 hrs by MTT assay; format: functional, cell-based
# SH-SY5Y [19] = test: Induction of apoptosis in human SH-SY5Y cells assessed as late apoptotic cells at 5 uM after 24 hrs by Annexin V-FITC/propidium iodide staining based flow cytometry (reference value: 5.7%); format: functional
# [20] = molecular target: Lysine-specific histone demethylase 1A (Homo sapiens, UniProt O60341); test: Inhibition of recombinant LSD1 (157 to 852 amino acids) (unknown origin) expressed in Escherichia coli BL21(DE) using H3K4me2 substrate
# SH-SY5Y [21] = test: Induction of apoptosis in human SH-SY5Y cells assessed as necrotic cells at 20 uM after 24 hrs by Annexin V-FITC/propidium iodide staining based flow cytometry (reference value: 2.9%); format: functional
# SH-SY5Y [22] = test: Induction of apoptosis in human SH-SY5Y cells assessed as late apoptotic cells at 1.25 uM after 24 hrs by Annexin V-FITC/propidium iodide staining based flow cytometry (reference value: 5.7%); format: functional
# SH-SY5Y [23] = test: Induction of apoptosis in human SH-SY5Y cells assessed as necrotic cells at 5 uM after 24 hrs by Annexin V-FITC/propidium iodide staining based flow cytometry (reference value: 2.9%); format: functional
# SH-SY5Y [24] = test: Induction of apoptosis in human SH-SY5Y cells assessed as early apoptotic cells at 2.5 uM after 24 hrs by Annexin V-FITC/propidium iodide staining based flow cytometry (reference value: 3.3%); format: functional
# SH-SY5Y [25] = test: Cell cycle arrest in human SH-SY5Y assessed as accumulation at G0/G1 phase at 5 uM after 24 hrs by propidium iodide staining based flow cytometry (reference value: 61.80%); format: functional
# SH-SY5Y [26] = test: Induction of apoptosis in human SH-SY5Y cells assessed as reduction in mitochondrial membrane potential at 5 uM after 24 hrs by JC-1 staining based flow cytometry (reference value: 5.1%); format: functional; design: scale not given: the % may be the effect or the level left
# SH-SY5Y [27] = test: Cell cycle arrest in human SH-SY5Y assessed as accumulation at G0/G1 phase at 1.25 uM after 24 hrs by propidium iodide staining based flow cytometry (reference value: 61.80%); format: functional
# SH-SY5Y [28] = test: Induction of apoptosis in human SH-SY5Y cells assessed as early apoptotic cells at 5 uM after 24 hrs by Annexin V-FITC/propidium iodide staining based flow cytometry (reference value: 3.3%); format: functional
# SH-SY5Y [29] = test: Induction of apoptosis in human SH-SY5Y cells assessed as reduction in mitochondrial membrane potential at 10 uM after 24 hrs by JC-1 staining based flow cytometry (reference value: 5.1%); format: functional; design: scale not given: the % may be the effect or the level left
# SH-SY5Y [30] = test: Induction of apoptosis in human SH-SY5Y cells assessed as necrotic cells at 1.25 uM after 24 hrs by Annexin V-FITC/propidium iodide staining based flow cytometry (reference value: 2.9%); format: functional
# [31] = Antiproliferative activity against human U87 cells assessed as cell growth inhibition after 72 hrs by MTT assay; format: functional, cell-based, U-87MG ATCC; conditions: U-87 MG
# SH-SY5Y [32] = test: Cell cycle arrest in human SH-SY5Y assessed as accumulation at G2/M phase at 2.5 uM after 24 hrs by propidium iodide staining based flow cytometry (reference value: 14.53%); format: functional
# MCF7 = test: cells; conditions: Homo sapiens, MCF7, 72 h
# Description: Antiproliferative activity against human MCF7 cells assessed as cell growth inhibition after 72 hrs by MTT assay
# SH-SY5Y [33] = test: Induction of apoptosis in human SH-SY5Y cells assessed as reduction in mitochondrial membrane potential after 24 hrs by JC-1 staining based flow cytometry; format: functional, cell-based
# SH-SY5Y [34] = test: Induction of apoptosis in human SH-SY5Y cells assessed as necrotic cells at 2.5 uM after 24 hrs by Annexin V-FITC/propidium iodide staining based flow cytometry (reference value: 2.9%); format: functional
# SH-SY5Y [35] = test: Induction of apoptosis in human SH-SY5Y cells assessed as viable cells at 20 uM after 24 hrs by Annexin V-FITC/propidium iodide staining based flow cytometry (reference value: 88.2%); format: functional; conditions: read-out: Activity
# SH-SY5Y [36] = test: Cell cycle arrest in human SH-SY5Y assessed as accumulation at S phase at 5 uM after 24 hrs by propidium iodide staining based flow cytometry (reference value: 21.34%); format: functional
# SH-SY5Y [37] = test: Induction of apoptosis in human SH-SY5Y cells assessed as early apoptotic cells at 20 uM after 24 hrs by Annexin V-FITC/propidium iodide staining based flow cytometry (reference value: 3.3%); format: functional
# SH-SY5Y [38] = test: Induction of apoptosis in human SH-SY5Y cells assessed as viable cells at 5 uM after 24 hrs by Annexin V-FITC/propidium iodide staining based flow cytometry (reference value: 88.2%); format: functional; conditions: read-out: Activity
# SH-SY5Y [39] = test: Induction of apoptosis in human SH-SY5Y cells assessed as necrotic cells at 10 uM after 24 hrs by Annexin V-FITC/propidium iodide staining based flow cytometry (reference value: 2.9%); format: functional
# SH-SY5Y [40] = test: Induction of apoptosis in human SH-SY5Y cells assessed as reduction in mitochondrial membrane potential at 2.5 uM after 24 hrs by JC-1 staining based flow cytometry (reference value: 5.1%); format: functional; design: scale not given: the % may be the effect or the level left
smiles,measurement,setting,value
C[C@]12CC[C@H](OC(=O)Cn3cc(CN4C(=O)C(=O)c5c(Cl)ccc(Cl)c54)nn3)CC1=CC[C@@H]1[C@@H]2CC[C@]2(C)C(=O)CC[C@@H]12,IC50,[1],20.8 µM
same,Activity,SH-SY5Y [2],27.74%
same,viability at 10 µM,SH-SY5Y [3],0.8%
same,Activity,SH-SY5Y [4],59.7%
same,Activity,SH-SY5Y [5],6.1%
same,Activity,SH-SY5Y [6],23.48%
same,Activity,SH-SY5Y [7],6.4%
same,Activity,SH-SY5Y [8],Dose-dependent effect
same,Activity,SH-SY5Y [9],39%
same,IC50,[10],5.95 µM
same,Activity,SH-SY5Y [11],65.7%
same,Activity,SH-SY5Y [12],24.78%
same,Activity,SH-SY5Y [13],Dose-dependent effect
same,Activity,SH-SY5Y [14],45.36%
same,Activity,SH-SY5Y [15],21.31%
same,viability at 2.5 µM,SH-SY5Y [16],81.4%
same,viability at 1.25 µM,SH-SY5Y [17],80.3%
same,IC50,SH-SY5Y [18],4.06 µM
same,Activity,SH-SY5Y [19],41.4%
same,IC50,[20],3.18 µM
same,Activity,SH-SY5Y [21],0.8%
same,Activity,SH-SY5Y [22],8.4%
same,Activity,SH-SY5Y [23],7.4%
same,Activity,SH-SY5Y [24],10.6%
same,Activity,SH-SY5Y [25],52.33%
same,Activity,SH-SY5Y [26],29.8%
same,Activity,SH-SY5Y [27],50.31%
same,Activity,SH-SY5Y [28],18.9%
same,Activity,SH-SY5Y [29],40.1%
same,Activity,SH-SY5Y [30],5.3%
same,IC50,[31],9.57 µM
same,Activity,SH-SY5Y [32],23.88%
same,IC50,MCF7,32.2 µM
same,Activity,SH-SY5Y [33],Dose-dependent effect
same,Activity,SH-SY5Y [34],1.6%
same,viability at 20 µM,SH-SY5Y [35],1%
same,Activity,SH-SY5Y [36],12.48%
same,Activity,SH-SY5Y [37],32.6%
same,viability at 5 µM,SH-SY5Y [38],32.4%
same,Activity,SH-SY5Y [39],0.5%
same,Activity,SH-SY5Y [40],9%
Cc1ccc(OCc2cn(CC(=O)O[C@H]3CC[C@@]4(C)C(=CC[C@@H]5[C@@H]4CC[C@]4(C)C(=O)CC[C@@H]54)C3)nn2)cc1,IC50,[1],23.9 µM
same,IC50,[10],21.6 µM
same,IC50,SH-SY5Y [18],26.9 µM
same,IC50,[31],18.5 µM
same,IC50,MCF7,38.6 µM
